Results from the supplement of paper PMC10477900.
Where a name gives a salt, the structure may show the parent alone.

Tests used:
[1] = tested on: HCT116; conditions: 72 h
Method: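 HCT116 control and MTA1-KO (CRISPR) HCT116 cells were seeded in 384-well plates (800 cells/well), treated 16 h later with 237 metabolism-related anticancer drugs at five doses (10 uM, 2 uM, 400 nM, 80 nM, 16 nM) for 72 h, two replicates; viability by CCK8. Values are % inhibition of viability relative to untreated cells, plus fitted IC50.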

[2] = tested on: HCT116; experiment: viability inhibition vs untreated; higher = more cytotoxic; conditions: 72 h

Row | Compound | IC50 ([1]; genotype: MTA1-KO) | IC50 ([1]; genotype: control) | viability inhibition ([2]; genotype: MTA1-KO, 16 nM) | viability inhibition ([2]; genotype: MTA1-KO, 80 nM) | viability inhibition ([2]; genotype: MTA1-KO, 400 nM) | viability inhibition ([2]; genotype: MTA1-KO, 2000 nM) | viability inhibition ([2]; genotype: MTA1-KO, 10000 nM) | viability inhibition ([2]; genotype: control, 16 nM) | viability inhibition ([2]; genotype: control, 80 nM) | viability inhibition ([2]; genotype: control, 400 nM) | viability inhibition ([2]; genotype: control, 2000 nM) | viability inhibition ([2]; genotype: control, 10000 nM)
1 | COc1ccc(-c2ccc3ncc4c(c3c2)n(-c2ccc(N3CCNCC3)c(C(F)(F)F)c2)c(=O)n4C)cn1 [BGT226] | 0.0773 µM | 0.0713 µM | 3.91% | 56.3% | 83% | 97.4% | 106% | -4.27% | 60.1% | 90.7% | 99% | 116%
2 | O=c1oc2c(O)c(O)cc3c(=O)oc4c(O)c(O)cc1c4c23 [Ellagic acid] | > 10 µM | > 10 µM | -9.03% | -12.1% | -9.22% | -2.14% | -6.22% | -17.2% | -19% | -17.4% | -13.6% | -11.3%
3 | Nc1nc2[nH]cc(CCc3ccc(C(=O)N[C@@H](CCC(=O)O)C(=O)O)cc3)c2c(=O)[nH]1 [Pemetrexed disodium] | > 10 µM | 1.18 µM | -3.16% | 1.56% | 17.8% | 28.6% | 32.9% | 21.1% | 13.2% | 10.5% | 70.6% | 69.4%
4 | CN(C)CCCCC(=O)Nc1ccc(NC(=S)NC(=O)c2ccc(C(C)(C)C)cc2)cc1 [Tenovin-6] | > 10 µM | 7.71 µM | -14.1% | -19.6% | -23.8% | -20.1% | 43.5% | -8.39% | 1.22% | 8.03% | 5.54% | 67.5%
5 | COc1ccccc1OCC(O)CN1CCN(CC(=O)Nc2c(C)cccc2C)CC1 (stereo not drawn) [Ranolazine dihydrochloride] | > 10 µM | > 10 µM | -7.57% | -13.7% | -7.85% | -21.5% | -19% | -2.04% | 2.97% | -7.95% | -0.947% | 15%
6 | O=C1CC(c2c[nH]c3ccc(F)cc23)C(=O)N1 (stereo not drawn) | > 10 µM | > 10 µM | 7.19% | 3.94% | 6.53% | 3.06% | 34% | 15.5% | -12.9% | -15.6% | -1.97% | 11.6%
7 | O=C1[C@H](CC[C@H](O)c2ccc(F)cc2)[C@@H](c2ccc(O)cc2)N1c1ccc(F)cc1 [Ezetimibe] | > 10 µM | > 10 µM | -4.11% | 3.58% | 10.6% | 5.65% | 0.125% | -7.56% | 2.58% | 22% | 25.8% | 31.9%
8 | CC(C)(C)c1cc(O)ccc1O [TBHQ] | > 10 µM | > 10 µM | -1.6% | -25.5% | -23.4% | -13.4% | 41.7% | 16.6% | 25.3% | 20.9% | 17.7% | 17%
9 | NS(=O)(=O)c1ccc(NC(=O)Nc2ccc(F)cc2)cc1 [U104] | > 10 µM | > 10 µM | -21.7% | -21.1% | -25.6% | -26.9% | -10.5% | -3.77% | -10.5% | -6.63% | -1.16% | 4.44%
10 | CC1(C)CC[C@]2(C(=O)O[C@@H]3O[C@H](CO)[C@@H](O)[C@H](O)[C@H]3O)CC[C@]3(C)C(=CC[C@@H]4[C@@]5(C)CC[C@H](O[C@@H]6O[C@H](C(=O)O)[C@@H](O)[C@H](O)[C@H]6O)C(C)(C)[C@@H]5CC[C@]43C)[C@@H]2C1 [Chikusetsusaponin IVa] | > 10 µM | > 10 µM | -3.21% | -3.77% | -2.17% | -0.406% | 19.3% | -1.39% | -7.09% | -12.1% | -11.2% | 3.05%
11 | O=C1NC(=O)/C(=C/c2ccc3nccc(-c4ccncc4)c3c2)S1 | 1.21 µM | 2.02 µM | -12% | -22.4% | 10.1% | 64.1% | 99.4% | 1.82% | -12% | 5.41% | 56.4% | 75.1%
12 | N#CNC(=NCCCCCCOc1ccc(Cl)cc1)Nc1ccncc1 [CHS 828] | 0.535 µM | 1.85 µM | -0.922% | -1.84% | 18.8% | 41.1% | 49% | -11.1% | 18.5% | 30.7% | 59.8% | 79.4%
13 | C[C@H]1CCC/C=C/[C@@H]2C[C@H](O)C[C@H]2[C@H](O)/C=C/C(=O)O1 [Brefeldin A] | 0.255 µM | 0.166 µM | -15.6% | -20.1% | 104% | 105% | 105% | 4.87% | -4.17% | 112% | 109% | 110%
14 | OCc1ccc(-c2nn(Cc3ccccc3)c3ccccc23)o1 [Lificiguat] | 2.7 µM | 2.38 µM | -2.39% | 4.47% | 8.63% | 37.6% | 92.2% | 0.501% | 5.33% | -0.629% | 22.8% | 100%
15 | Cc1ccc2nc(CN(CCN(Cc3nc4ccc(C)cc4[nH]3)Cc3nc4ccc(C)cc4[nH]3)Cc3nc4ccc(C)cc4[nH]3)[nH]c2c1 | 6.48 µM | 7.39 µM | 0.589% | -11.3% | -3.97% | 0.541% | 76.8% | 6.37% | 14.6% | 2.85% | 20.1% | 64.1%
16 | CC1=C(/C=C/C(C)=C/C=C/C(C)=C/C(=O)Nc2ccc(O)cc2)C(C)(C)CCC1 [Fenretinide] | > 10 µM | > 10 µM | -13% | -18.5% | -15% | -14.4% | -2.3% | 23.7% | 2.62% | 1.09% | 9.79% | 15.3%
17 | COc1ccccc1OCC(O)CN1CCN(CC(=O)Nc2c(C)cccc2C)CC1 (stereo not drawn) [Ranolazine] | 6.87 µM | > 10 µM | -0.081% | 5.69% | 8.98% | 2.99% | 74.3% | -8.25% | -12.6% | -15.3% | -15% | 8.96%
18 | COc1cc(Nc2nc3ccccc3nc2NS(=O)(=O)c2ccc(NC(=O)c3ccc(C)c(OC)c3)cc2)cc(OC)c1 [Voxtalisib Analogue] | > 10 µM | > 10 µM | -13.9% | -7.35% | -17% | -3.38% | 24.9% | -7.04% | -8.31% | -4.56% | -7.36% | 5.96%
19 | Nc1cc(C(F)(F)F)c(-c2nc(N3CCOCC3)nc(N3CCOCC3)n2)cn1 [PI3K-IN-2] | 0.468 µM | 0.7 µM | 23.9% | 23% | 49.3% | 88.7% | 90.2% | -12.8% | 0.462% | 27.1% | 73.3% | 83.3%
